According to paper PMC6270171, “In Vitro and In Vivo Antiangiogenic Activity of Caged Polyprenylated Xanthones Isolated from Garcinia hanburyi Hook. f” (Molecules, 2013):
“And” between values parts separate entries of the source, which are not always exact repeats. Identical values can stand only once. Like-named read-outs stand apart in the source and are kept apart here.

How the values were obtained:
HeLa = assay: MTT cytotoxicity assay, HeLa; assay type: cell-based; conditions: Homo sapiens, read-out: IC50 HeLa
Method: (§1) The xanthones 1–11 were tested for cytotoxicity against HeLa, A549, HCT-116, and HepG-2 human cancer cell lines and inhibition on the proliferation of the HUVEC cell line by using the MTT assay according to the described protocols.

A549 = assay: MTT cytotoxicity assay, A549; assay type: cell-based; conditions: Homo sapiens
Method: as §1

HCT-116 = assay: MTT cytotoxicity assay, HCT-116; assay type: cell-based; conditions: Homo sapiens
Method: as §1

HepG-2 = assay: MTT cytotoxicity assay, HepG-2; assay type: cell-based; conditions: Homo sapiens
Method: as §1

HUVEC cell line = assay: MTT assay, inhibition of proliferation of HUVEC cell line; assay type: cell-based; conditions: Homo sapiens, read-out: IC50 HUVEC
Method: as §1

[1] = system: zebrafish embryos Tg(flk1:EGFP); assay: Antiangiogenic activity assay on blood vessel formation in zebrafish embryos; assay type: in vivo, zebrafish (Danio rerio); conditions: for Antiangiogenic activity to zebrafish embryos: concentrations varying from 1 μM to 16 μM; for Concentration with inhibitory effect on ISV formation (Figure 2): zebrafish embryos, 24 h, effects of 3, 7, 9 comparable to GA
Method: (§2) A transgenic zebrafish line, Tg(flk1:EGFP), with the endothelial- specific flk1 promoter directing enhanced green fluorescent protein (EGFP) expression in all endothelial cells of the vasculature was used. Adult zebrafish were maintained at 28.5 °C in a recirculating aquaculture system. Zebrafish embryos were generated by natural pair-wise mating, collected in the morning and raised at 28.5 °C in embryo water (0.2 g/L of Instant Ocean Salt in distilled water). At 6 h post-fertilization (hpf), the embryos were sorted for viability and developmental stage (shield stage). The embryos were firstly placed in 24-well plates in 1 mL of embryo water with eight embryos per well. Then, the xanthones, at various concentrations, were added to embryo water of each well from the shield stage (about 6 h). Because the fish embryo receives nourishment from an attached yolk ball for the duration of the experiment, no additional maintenance was required during the duration of the experiments. After treatment with the drugs for 24 h, the embryos were anesthetized with 0.05% 2-phenoxyethanol in embryo water. One to three embryos were placed on carry sheet glass and each embryo was examined for the presence of ectopic vessels in the subintestinal vessel plexus (SIV) as an indication of antiangiogenic effect. Photographs were taken under a fluorescence microscope.

zebrafish embryos [2] = assay: Death rates of treated zebrafish embryos; assay type: in vivo, zebrafish (Danio rerio); conditions: for Death Rate: eight embryos per well, control 0; for Concentration that caused the death of all zebrafish embryos: highest concentration tested
Method: as §2

zebrafish embryos [3] = assay: Heart rates of treated zebrafish embryos; assay type: in vivo, zebrafish (Danio rerio)
HUVEC = HUVEC wound migration assay; assay type: cell-based, human; conditions: 0.5 μM, 24 h
Method: The wound migration assay was performed as previously described. HUVECs were seeded at a plating density of 2 × 10^5 per well in 6-well plates which had been coated with 1% gelatin, cells grown in DMEM medium with 10% FBS overnight. After reaching 100% confluence, the cells were then gently scraped with a plastic tip to produce a wound area. After wounding cells were incubated with fresh DMEM medium with xanthones 1, 3, 7 and 9 at a concentration of 0.5 μM, the migration and cell movement throughout the wound area was examined after 24 h.

[4] = MTT assay, 50% inhibition of cell growth
[5] = A549, MTT assay, 50% inhibition of cell growth, read-out: IC50 A549
[6] = HCT-116, MTT assay, 50% inhibition of cell growth, read-out: IC50 HCT-116
[7] = HepG2, MTT assay, 50% inhibition of cell growth, read-out: IC50 HepG-2
[8] = Tg(flk1:EGFP), zebrafish, in vivo, 24 h, 2 μM
[9] = Tg(flk1:EGFP), zebrafish, in vivo, 24 h, 4 μM
[10] = 1 μM, zebrafish embryos, control 21 per 10 s
[11] = 2 μM, zebrafish embryos, control 21 per 10 s
[12] = 4 μM, zebrafish embryos, control 21 per 10 s
[13] = HCT-116, read-out: IC50 HCT-116
[14] = 8 μM, zebrafish embryos, control 21 per 10 s
[15] = Tg(flk1:EGFP), zebrafish, in vivo, 24 h, 8 μM

SMILES	IC50 (HeLa; [4])	IC50 (A549; [5])	IC50 (HCT-116; [6])	IC50 (HepG-2; [7])	IC50 (HUVEC cell line; [4])	Death Rate (zebrafish embryos [2]; 1 μM)	Death Rate (zebrafish embryos [2]; 2 μM)	Death Rate (zebrafish embryos [2]; 4 μM)	Heart Rate (zebrafish embryos [3]; [8])	Heart Rate (zebrafish embryos [3]; [9])	Heart Rate (zebrafish embryos [3]; [10])	Heart Rate (zebrafish embryos [3]; [11])	Heart Rate (zebrafish embryos [3]; [12])	IC50 (HeLa)	IC50 (A549; A549, read-out: IC50 A549)	IC50 (HCT-116; [13])	IC50 (HepG-2; HepG2, read-out: IC50 HepG-2)	IC50 (HUVEC cell line)	Death Rate (zebrafish embryos [2]; 8 μM)	Heart Rate (zebrafish embryos [3]; [15])	further results
CC(C)=CCC[C@]1(C)C=Cc2c(O)c3c(c(CC=C(C)C)c2O1)O[C@]12C(=C[C@@H]4C[C@H]1C(C)(C)O[C@@]2(C/C=C(/C)C(=O)O)C4=O)C3=O [Xanthone 1, gambogic acid]	1.59 µM	1.55 µM	640 nM	0.78 µM	720 nM	0	1/8	8/8	3 per 10 s	0 per 10 s	–	–	–	–	–	–	–	–	–	–	Antiangiogenic activity to zebrafish embryos [1]: displayed antiangiogenic activity; Concentration with inhibitory effect on ISV formation (Figure 2) [1]: 1 µM and 2 µM; Concentration that caused the death of all zebrafish embryos (zebrafish embryos [2]): 4 µM; Heart Rate (zebrafish embryos [3]; Tg(flk1:EGFP), zebrafish, in vivo, 24 h, 1 μM): 8 per 10 s; Inhibition of the migration of HUVEC (HUVEC): remarkable inhibition
CC(C)=CCC/C(C)=C/Cc1c(O)c(CC=C(C)C)c2c(c1O)C(=O)C1=C[C@@H]3C[C@H]4C(C)(C)O[C@@](C/C=C(/C)C(=O)O)(C3=O)[C@@]14O2 [Xanthone 2, gambogenic acid]	11.5 µM	4.76 µM	4760 nM	6.35 µM	4120 nM	0	0	8/8	–	–	21 per 10 s	18 per 10 s	0 per 10 s	–	–	–	–	–	–	–	–
CC(C)=CCc1c2c(c(O)c3c1O[C@]14C(=C[C@@H]5C[C@H]1C(C)(C)O[C@@]4(C/C=C(/C)C(=O)O)C5=O)C3=O)C=CC(C)(C)O2 [Xanthone 3, morellic acid]	–	–	–	–	–	–	0	0	–	–	–	8 per 10 s	6 per 10 s	13.8 µM	14.2 µM	8890 nM	13.3 µM	6140 nM	8/8	–	Antiangiogenic activity to zebrafish embryos [1]: displayed antiangiogenic activity; Concentration with inhibitory effect on ISV formation (Figure 2) [1]: 4 µM; Concentration that caused the death of all zebrafish embryos (zebrafish embryos [2]): 8 µM; Heart Rate (zebrafish embryos [3]; [14]): 0 per 10 s; Inhibition of the migration of HUVEC (HUVEC): remarkable inhibition
CC(C)=CCC/C(C)=C/Cc1c(O)c2c(c3c1O[C@@H](C(C)(C)O)C3)O[C@]13C(=C[C@@H]4C[C@H]1C(C)(C)O[C@@]3(C/C=C(/C)C(=O)O)C4=O)C2=O [Xanthone 4, gambogenific acid]	7.58 µM	11.3 µM	4490 nM	10.2 µM	2480 nM	–	0	0	21 per 10 s	17 per 10 s	–	–	–	–	–	–	–	–	0	13 per 10 s	–
CC(C)=CCc1c2c(c(O)c3c1O[C@]14C(=C[C@@H]5C[C@H]1C(C)(C)O[C@@]4(C/C=C(/C)C=O)C5=O)C3=O)C=CC(C)(C)O2 [Xanthone 5, morellin isomers]	5.33 µM	6.43 µM	2760 nM	5.97 µM	2390 nM	–	0	0	13 per 10 s	10 per 10 s	–	–	–	–	–	–	–	–	8/8	8 per 10 s	–
CC(C)=CCC/C(C)=C/Cc1c(O)c(CC=C(C)C)c2c(c1O)C(=O)C1=C[C@@H]3C[C@H]4C(C)(C)O[C@@](C/C=C(\C)C=O)(C3=O)[C@@]14O2 [Xanthone 6, isogambogenin]	4.07 µM	4.88 µM	1470 nM	2.44 µM	2120 nM	–	–	–	–	–	–	–	–	–	–	–	–	–	0	17 per 10 s	Death Rate (zebrafish embryos [2]; 16 μM): 1/8; Death Rate (zebrafish embryos [2]; 32 μM): 4/8; Heart Rate (zebrafish embryos [3]; Tg(flk1:EGFP), zebrafish, in vivo, 24 h, 16 μM): 14 per 10 s; Heart Rate (zebrafish embryos [3]; Tg(flk1:EGFP), zebrafish, in vivo, 24 h, 32 μM): 8 per 10 s
CC(C)=CCCC1(C)C=Cc2c(O)c3c(c(CC=C(C)C)c2O1)O[C@]12C(=C[C@@H]4C[C@H]1C(C)(C)O[C@@]2(C/C=C(\C)C(=O)O)C4=O)C3=O (stereo partly drawn) [Xanthone 8, isogambogic acid]	4.77 µM	2.86 µM	1590 nM	6.37 µM	910 nM	–	0	1/8	17 per 10 s	13 per 10 s	–	–	–	–	–	–	–	–	6/8	6 per 10 s	–
CC(C)=CCc1c2c(c(O)c3c1O[C@]14C(=C[C@@H]5C[C@H]1C(C)(C)O[C@@]4(CC=C(C)C)C5=O)C3=O)C=CC(C)(C)O2 [Xanthone 10, desoxymorellin]	–	–	–	–	–	0	0	0	–	–	20 per 10 s	17 per 10 s	16 per 10 s	2.6 µM	2.05 µM	1200 nM	1 µM	900 nM	0	–	Heart Rate (zebrafish embryos [3]; [14]): 16 per 10 s
CC(C)=CCC/C(C)=C/Cc1c(O)c(CC=C(C)C)c2c(c1O)C(=O)C1=C[C@@H]3C[C@H]4C(C)(C)O[C@@](CC=C(C)C)(C3=O)[C@@]14O2 [Xanthone 11, desoxygambogenin]	–	–	–	–	–	0	0	0	–	–	21 per 10 s	21 per 10 s	21 per 10 s	2.95 µM	1.8 µM	1350 nM	1.15 µM	1600 nM	0	–	Heart Rate (zebrafish embryos [3]; [14]): 20 per 10 s
